# Experimental data published in patent EP4603105A1, “PHARMACEUTICAL COMPOSITION CONTAINING CYCLIC COMPOUND HAVING SELECTIVE KRAS INHIBITORY EFFECT AGAINST HRAS AND NRAS” (CHUGAI SEIYAKU KABUSHIKI KAISHA, priority 2022, dated 2024).
# *1 amine or outer side, *2 acyl side, *3 side chain or, on linkers, in order; H or OH if unused. Where a SMILES comes first, the peptide text is derived from it. Bridges are numbered along the chain shown (N, C = ends). [ ]: non-standard residue; d: D form. The star is where a group is joined. hPhe(3,5-F2-4-CF3) = N[C@@H](CCc1cc(F)c(C(F)(F)F)c(F)c1)C(=O)O; hPhe(3-Cl-4-CF3) = N[C@@H](CCc1ccc(C(F)(F)F)c(Cl)c1)C(=O)O; X48 = CCCN([C@@H](Cc1ccc(OCC=[*:3])cc1)C(=O)[*:2])[*:1]; NPrPhe(4-CF3) = CCCN[C@@H](Cc1ccc(C(F)(F)F)cc1)C(=O)O; X47 = CN([C@@H](CCC=[*:3])C(=O)[*:2])[*:1]; NMeGly(cPent) = CN[C@H](C(=O)O)C1CCCC1; Pro(4,4-F2) = O=C(O)[C@@H]1CC(F)(F)CN1; Hyp = O=C(O)[C@@H]1C[C@@H](O)CN1; NMeD = CN[C@@H](CC(=O)O)C(=O)O; NMeL = CN[C@@H](CC(C)C)C(=O)O; Morpholide = C1CN(*)CCO1; Ac5c = NC1(C(=O)O)CCCC1; Ac4c = NC1(C(=O)O)CCC1; NEtG = CCNCC(=O)O; Sar = CNCC(=O)O
# Tests used:
# [1] = molecular target: HRAS wild-type protein (Homo sapiens, UniProt P01112); test: Binding to HRAS by surface plasmon resonance (SPR), KD and KD ratio to KRAS
# Procedure, shortened: (§1)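 Running buffer contained 10 µM GDP and 10 mM MgCl2 to keep RAS in the GDP state, with 4% DMSO at pH 7.4. Compounds were flowed at 100 µL/min in 75 s steps of rising concentration over captured biotin-Avi RAS at 30°C. Sensorgrams were fitted 1:1 for KD.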
# [2] = test system: human lung cancer strain NCI-H441; assay type: cell-based
# Procedure, shortened: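 Step one: dispense the test compound in serial DMSO dilutions. Step three: add the reagent and measure […].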
# [3] = molecular target: GDP-bound NRAS wild-type protein (Homo sapiens, UniProt P01111); test: Binding to NRAS by surface plasmon resonance (SPR), KD and KD ratio to KRAS
# Procedure, shortened: as §1
# [4] = ratio of KD for HRAS wild-type protein to KD for KRAS
# [5] = ratio of KD for GDP-bound NRAS wild-type protein to KD for KRAS
# [6] = ratio of the KD value with respect to HRAS wild-type protein to the KD value with respect to KRAS
# [7] = ratio of the KD value with respect to GDP-bound NRAS wild-type protein to the KD value with respect to KRAS
# Chain of HRAS wild-type protein (P01112 whole entry): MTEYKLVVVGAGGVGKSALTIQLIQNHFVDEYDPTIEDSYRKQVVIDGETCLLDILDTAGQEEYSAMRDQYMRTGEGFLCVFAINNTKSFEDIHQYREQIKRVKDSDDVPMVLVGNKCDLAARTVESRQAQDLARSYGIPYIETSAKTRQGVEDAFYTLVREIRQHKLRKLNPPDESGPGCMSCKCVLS
# Chain of GDP-bound NRAS wild-type protein (P01111 whole entry): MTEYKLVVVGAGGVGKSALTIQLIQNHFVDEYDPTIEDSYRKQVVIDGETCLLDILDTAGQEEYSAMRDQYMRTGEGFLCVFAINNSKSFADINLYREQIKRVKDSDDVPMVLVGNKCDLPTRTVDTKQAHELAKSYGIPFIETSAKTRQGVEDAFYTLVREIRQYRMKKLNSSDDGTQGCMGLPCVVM
SMILES,IC50 [2] [nM],"HRAS /KRAS [1, 4]","NRAS /KRAS [3, 5]","HRAS /KRAS [1, 6]","NRAS /KRAS [3, 7]",HRAS /KRAS ([1]; ratio of KD value for HRAS wild-type protein to KD value for KRAS (SPR)),NRAS /KRAS ([3]; ratio of KD value for GDP-bound NRAS wild-type protein to KD value for KRAS (SPR))
"CCCN1C(=O)CN(C)C(=O)CN(CC)C(=O)[C@H]([C@@H](C)CC)NC(=O)[C@H](CC(C)C)N(C)C(=O)C[C@@H](C(=O)N2CCOCC2)NC(=O)[C@H](C2CCCC2)N(C)C(=O)C2(CCC2)NC(=O)[C@@H]2CC(F)(F)CN2C(=O)[C@H](CCc2ccc(C(F)(F)F)c(Cl)c2)NC(=O)CN(C)C(=O)[C@@H]1Cc1ccc(C(F)(F)F)cc1 [PP0334] ([NMeL]I[NEtG][Sar][NPrPhe(4-CF3)][Sar][hPhe(3-Cl-4-CF3)][Pro(4,4-F2)][Ac4c][NMeGly(cPent)]D-Morpholide; lactam N-11)",130,C (A compound having a KD ratio of 0.1 or more and less than 3 is denoted as C),B (a compound having 3 or more and less than 10 is denoted as B),–,–,–,–
CCCO[C@@H]1C[C@H]2C(=O)NC3(CC(C)(C)C3)C(=O)N(C)[C@@H](C(CC)CC)C(=O)N(C)[C@H](C(=O)N(C)C)CC(=O)N(C)[C@H]3CCCc4ccc(cc4)C[C@@H](C(=O)N(C)CC(=O)N[C@@H](CCc4ccc(C(F)(F)F)c(OC)c4)C(=O)N2C1)N1CC/C=C\C[C@@H](C1=O)N(C)C(=O)CN(C)C(=O)[C@H]([C@@H](C)CC)NC3=O [PP3063],32.2,B (a compound having 3 or more and less than 10 is denoted as B),B (a compound having 3 or more and less than 10 is denoted as B),–,–,–,–
CCO[C@@H]1C[C@H]2C(=O)NC3(CC(C)(C)C3)C(=O)N(C)[C@@H](C3CCCC3)C(=O)N(C)[C@H](C(=O)N3CCCCC3)CC(=O)N(C)[C@H]3CCC/C=C/c4ccc(cc4)C[C@@H](C(=O)N(C)CC(=O)N[C@@H](CCc4cc(F)c(C(F)(F)F)c(F)c4)C(=O)N2C1)N1CC/C=C\C[C@@H](C1=O)N(C)C(=O)CN(C)C(=O)[C@H]([C@@H](C)CC)NC3=O [PP2573],10.1,A (a compound having 10 or more and less than 20 is denoted as A),A (a compound having 10 or more and less than 20 is denoted as A),–,–,–,–
CC[C@H](C)[C@@H]1NC(=O)[C@H](CC(C)C)N(C)C(=O)C[C@@H](C(=O)N2CCOCC2)N(C)C(=O)[C@H](C2CCCC2)N(C)C(=O)C2(CCCC2)NC(=O)[C@@H]2CCCN2C(=O)[C@H](CCc2cc(F)c(C(F)(F)F)c(F)c2)NC(=O)CN(C)C(=O)[C@H](Cc2ccc(C(F)(F)F)cc2)N2CCCC[C@@H](C2=O)N(C)C(=O)[C@@H]2CCCCN2C1=O [PP0548],501,–,–,B (a compound having 3 or more and less than 10 is denoted as B),C (A compound having a KD ratio of 0.1 or more and less than 3 is denoted as C),–,–
CCC[C@H]1C(=O)N[C@@H]([C@@H](C)CC)C(=O)N(C2CC2)CC(=O)N(C)[C@H]2C/C=C\CCN(C2=O)[C@@H](Cc2ccc(C)cc2)C(=O)N(C)CC(=O)N[C@@H](CCc2cc(F)c3c(c2)OCC3)C(=O)N2C[C@H](OCC)C[C@H]2C(=O)NC2(CC(C)(C)C2)C(=O)N(C)[C@@H](C2CCCC2)C(=O)N(C)[C@H](C(=O)N(C)C)CC(=O)N1C [PP2880],127,A (a compound having 10 or more and less than 20 is denoted as A),A (a compound having 10 or more and less than 20 is denoted as A),–,–,–,–
CCO[C@@H]1C[C@H]2C(=O)NC3(CC(C)(C)C3)C(=O)N(C)[C@@H](C(CC)CC)C(=O)N(C)[C@H](C(=O)N(C)C)CC(=O)N(C)[C@@H](CC3CC3)C(=O)N[C@@H]([C@@H](C)CC)C(=O)N(C)CC(=O)N(C)[C@H]3C/C=C\CCN(C3=O)[C@@H](Cc3ccc(C)cc3)C(=O)N(C)CC(=O)N[C@@H](CCc3ccc(C(F)(F)F)c(OC)c3)C(=O)N2C1 [PP2166],23.7,–,–,A (a compound having 10 or more and less than 20 is denoted as A),A (a compound having 10 or more and less than 20 is denoted as A),–,–

# The remaining molecules from weak to strong by IC50 [2], led by results:
IC50 [2] [nM],SMILES,"HRAS /KRAS [1, 4]","NRAS /KRAS [3, 5]","HRAS /KRAS [1, 6]","NRAS /KRAS [3, 7]",HRAS /KRAS ([1]; ratio of KD value for HRAS wild-type protein to KD value for KRAS (SPR)),NRAS /KRAS ([3]; ratio of KD value for GDP-bound NRAS wild-type protein to KD value for KRAS (SPR))
13.8,CCC[C@H]1C(=O)N[C@@H](C2CCCC2)C(=O)N(C)CC(=O)N(C)[C@H]2C/C=C\CCN(C2=O)[C@@H](Cc2ccc(C)cc2)C(=O)N(C)CC(=O)N[C@@H](CCc2ccc(C(F)(F)F)c(Cl)c2)C(=O)N2C[C@H](OCC)C[C@H]2C(=O)NC2(CC(C)(C)C2)C(=O)N(C)[C@@H](C2CCCC2)C(=O)N(C)[C@H](C(=O)N(C)C)CC(=O)N1C [PP2198],–,–,A (a compound having 10 or more and less than 20 is denoted as A),A (a compound having 10 or more and less than 20 is denoted as A),–,–
8.5,CCO[C@@H]1C[C@H]2C(=O)NC3(CC(C)(C)C3)C(=O)N(C)[C@@H](C(CC)CC)C(=O)N(C)[C@H](C(=O)N(C)C)CC(=O)N(C)[C@@H](CC)C(=O)N[C@@H]([C@@H](C)CC)C(=O)N(C)CC(=O)N(C)[C@H]3C/C=C\CCN(C3=O)[C@@H](Cc3ccc(C)cc3)C(=O)N(C)CC(=O)N[C@@H](CCc3ccc(C(F)(F)F)c(OC)c3)C(=O)N2C1 [PP2170],–,–,A (a compound having 10 or more and less than 20 is denoted as A),A (a compound having 10 or more and less than 20 is denoted as A),–,–
4.9,"CCCN1C(=O)CN(C)C(=O)CN(C)C(=O)[C@H]([C@@H](C)CC)NC(=O)[C@@H]2CCC=CCOc3ccc(cc3)C[C@H]1C(=O)N(C)CC(=O)N[C@@H](CCc1cc(F)c(C(F)(F)F)c(F)c1)C(=O)N1C[C@H](OCC)C[C@H]1C(=O)NC1(CCCC1)C(=O)N(C)[C@@H](C1CCCC1)C(=O)N(C)[C@H](C(=O)N(C)C)CC(=O)N2C [PP0900] ([X47]I[Sar][Sar][X48][Sar][hPhe(3,5-F2-4-CF3)][Hyp](Et)[Ac5c][NMeGly(cPent)][NMeD]-NMe2; staple 1-5; lactam N-11)",C (A compound having a KD ratio of 0.1 or more and less than 3 is denoted as C),C (A compound having a KD ratio of 0.1 or more and less than 3 is denoted as C),–,–,–,–
4.9,C#CC[C@H]1C(=O)N[C@@H]([C@@H](C)CC)C(=O)N(C)CC(=O)N(C)[C@H]2C/C=C\CCN(C2=O)[C@@H](Cc2ccc(C(F)(F)F)cc2)C(=O)N(C)CC(=O)N[C@@H](CCc2ccc(C(F)(F)F)c(OC)c2)C(=O)N2C[C@H](OCC)C[C@H]2C(=O)NC2(CCC2)C(=O)N(C)[C@@H](C2CCCC2)C(=O)N(C)[C@H](C(=O)N(C)CCC)CC(=O)N1C [PP2059],–,–,A (a compound having 10 or more and less than 20 is denoted as A),A (a compound having 10 or more and less than 20 is denoted as A),–,–
3.8,CCO[C@@H]1C[C@H]2C(=O)NC3(CCC3)C(=O)N(C)[C@@H](C3CCCC3)C(=O)N(C)[C@H](C(=O)N(C)C)CC(=O)N(C)[C@@H](CC3CCCCC3)C(=O)N[C@@H]([C@@H](C)CC)C(=O)N(C)CC(=O)N(C)[C@H]3CCCCN(C3=O)[C@@H](Cc3ccc(C(F)(F)F)cc3)C(=O)N(C)CC(=O)N[C@@H](CCc3cc(F)c(C(F)(F)F)c(F)c3)C(=O)N2C1 [PP0701],–,–,B (a compound having 3 or more and less than 10 is denoted as B),C (A compound having a KD ratio of 0.1 or more and less than 3 is denoted as C),–,–
2.8,CCCOC[C@H]1C(=O)N[C@@H]([C@@H](C)CC)C(=O)N(C)CC(=O)N(C)[C@H]2C/C=C\CCN(C2=O)[C@@H](Cc2ccc(C(F)(F)F)cc2)C(=O)N(C)CC(=O)N[C@@H](CCc2cc(F)c(C(F)(F)F)c(F)c2)C(=O)N2C[C@H](OCC)C[C@H]2C(=O)NC2(CCC2)C(=O)N(C)[C@@H](C2CCCC2)C(=O)N(C)[C@H](C(=O)N(C)CC)CC(=O)N1C [PP1569],–,–,–,–,B (a compound having 3 or more and less than 10 is denoted as B),A (a compound having 10 or more and less than 20 is denoted as A)
